According to the supplement of paper PMC10307832:

How the values were obtained:
Assay in all cases: relative viability (nuclei count vs DMSO), 5 days (fraction); higher = more cells survive
LU99A = test system: LU99A
In short: (§1)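 One day after seeding in 1536-well plates, lung cancer cell lines were dosed by pin tool. Dosing was either single-drug or a fixed anchor-drug dose plus five library-drug doses (not always all listed) in √10 steps. After 5 days, nuclei were stained in one fix-and-stain step and counted on 4× images, and relative viability is the nuclei count of treated wells over that of vehicle wells, given as the median of duplicate plates.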

NCI-H1395 = test system: NCI-H1395
In short: as §1

NCI-H1437 = test system: NCI-H1437
In short: as §1

NCI-H1666 = test system: NCI-H1666
In short: as §1

NCI-H1975 = test system: NCI-H1975
In short: as §1

NCI-H2085 = test system: NCI-H2085
In short: as §1

NCI-H2087 = test system: NCI-H2087
In short: as §1

NCI-H2126 = test system: NCI-H2126
In short: as §1

NCI-H358 = test system: NCI-H358
In short: as §1

NCI-H647 = test system: NCI-H647
In short: as §1

PC-3 [JPC-3] = test system: PC-3 [JPC-3]
In short: as §1

SW 1573 = test system: SW 1573
In short: as §1

Molecule `COc1cc(N2CCC(C(N)=O)CC2)ccc1Nc1nc(N)c(Cl)c(Nc2ccccc2S(=O)(=O)C(C)C)n1` [HG-5-88-01] + CS(=O)(=O)CCNCc1ccc(-c2ccc3ncnc(Nc4ccc(OCc5cccc(F)c5)c(Cl)c4)c3c2)o1 [Lapatinib] (partner 2 µM) has a relative viability (LU99A; first compound 1.265 µM) of 0.988, a relative viability (LU99A; first compound 4 µM) of 0.721 and a relative viability (NCI-H1395; first compound 0.04 µM) of 0.933. The relative viability (NCI-H1395; first compound 0.1265 µM) was 1, the relative viability (NCI-H1395; first compound 0.4 µM) was 1.12 and the relative viability (NCI-H1395; first compound 1.265 µM) was 1.05. It also gave a relative viability (NCI-H1395; first compound 4 µM) of 0.83, a relative viability (NCI-H1437; first compound 0.04 µM) of 0.8 and a relative viability (NCI-H1437; first compound 0.1265 µM) of 0.945. For the same molecule, the relative viability (NCI-H1437; first compound 0.4 µM) was 0.756, the relative viability (NCI-H1437; first compound 1.265 µM) was 0.761 and the relative viability (NCI-H1437; first compound 4 µM) was 0.454. It also gave a relative viability (NCI-H1666; first compound 0.04 µM) of 0.742, a relative viability (NCI-H1666; first compound 0.1265 µM) of 0.742 and a relative viability (NCI-H1666; first compound 0.4 µM) of 0.5. The relative viability (NCI-H1666; first compound 1.265 µM) was 0.463, the relative viability (NCI-H1666; first compound 4 µM) was 0.293 and the relative viability (NCI-H1975; first compound 0.04 µM) was 0.896. For the same molecule, the relative viability (NCI-H1975; first compound 0.1265 µM) was 0.907, the relative viability (NCI-H1975; first compound 0.4 µM) was 0.723 and the relative viability (NCI-H1975; first compound 1.265 µM) was 0.736. It also gave a relative viability (NCI-H1975; first compound 4 µM) of 0.447, a relative viability (NCI-H2085; first compound 0.04 µM) of 0.718 and a relative viability (NCI-H2085; first compound 0.1265 µM) of 0.86. For the same molecule, the relative viability (NCI-H2085; first compound 0.4 µM) was 0.761, the relative viability (NCI-H2085; first compound 1.265 µM) was 0.65 and the relative viability (NCI-H2085; first compound 4 µM) was 0.557. The relative viability (NCI-H2087; first compound 0.04 µM) was 1.01, the relative viability (NCI-H2087; first compound 0.1265 µM) was 0.988 and the relative viability (NCI-H2087; first compound 0.4 µM) was 0.989. It also gave a relative viability (NCI-H2087; first compound 1.265 µM) of 0.899, a relative viability (NCI-H2087; first compound 4 µM) of 0.735 and a relative viability (NCI-H2126; first compound 0.04 µM) of 0.649. For the same molecule, the relative viability (NCI-H2126; first compound 0.1265 µM) was 0.712, the relative viability (NCI-H2126; first compound 0.4 µM) was 0.706 and the relative viability (NCI-H2126; first compound 1.265 µM) was 0.726. It also gave a relative viability (NCI-H2126; first compound 4 µM) of 0.45, a relative viability (NCI-H358; first compound 0.04 µM) of 0.451 and a relative viability (NCI-H358; first compound 0.1265 µM) of 0.378. For the same molecule, the relative viability (NCI-H358; first compound 0.4 µM) was 0.307, the relative viability (NCI-H358; first compound 1.265 µM) was 0.256 and the relative viability (NCI-H358; first compound 4 µM) was 0.304. The relative viability (NCI-H647; first compound 0.04 µM) was 0.929, the relative viability (NCI-H647; first compound 0.1265 µM) was 1.23 and the relative viability (NCI-H647; first compound 1.265 µM) was 1.11. It also gave a relative viability (NCI-H647; first compound 4 µM) of 1.21, a relative viability (PC-3 [JPC-3]; first compound 0.04 µM) of 0.408 and a relative viability (PC-3 [JPC-3]; first compound 0.1265 µM) of 0.466. The relative viability (PC-3 [JPC-3]; first compound 0.4 µM) was 0.39, the relative viability (PC-3 [JPC-3]; first compound 1.265 µM) was 0.434 and the relative viability (PC-3 [JPC-3]; first compound 4 µM) was 0.25. It also gave a relative viability (SW 1573; first compound 0.04 µM) of 1.12, a relative viability (SW 1573; first compound 0.1265 µM) of 0.86 and a relative viability (SW 1573; first compound 0.4 µM) of 0.989. The relative viability (SW 1573; first compound 1.265 µM) was 1.06 and the relative viability (SW 1573; first compound 4 µM) was 1.04.
